Key:
IL-6 in THP-1 cells = assay: Inhibition of IL-6 in LPS-stimulated THP-1 human monocyte cells (HTRF); type: cell-based; settings: IL-6 HTRF; for EC50: 500 ng/mL LPS, 22 hours; for inhibition at 10 µM: LPS, read-out: percent inhibition in brackets (given for EC50 >10 μM)
In short: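 THP-1 cells, serum-reduced (1% FBS) for 24 h, were exposed to compound (1:3, 10-point series from 10 μM; 0.1% DMSO) for 2 h, then 500 ng/mL LPS for 22 h at 37° C. Secreted IL-6 measured by HTRF (665/620 ratio), normalised to DMSO; EC50 by four-parameter fit, else % inhibition at 10 μM.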

[1] = tested on: Wnt activity (Sp5-Luc reporter, human Sp5 promoter with eight TCF/LEF binding sites) in SW480 colon carcinoma cells; assay: Screening assay for Wnt activity: Sp5-Luc reporter gene assay in SW480 cells; type: cell-based; settings: for inhibition at 10 µM: read-out: percent inhibition at 10 μM (given for EC50 of >10 μM); for EC50: 10-point dose-response starting from 10 μM, overnight incubation
In short: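 SW480 cells stably carrying Sp5-Luc reporter (eight TCF/LEF sites) plated at 4,000/well in 1% FBS medium with compound (10-point 1:3 series from 10 μM, 0.1% DMSO) overnight at 37 °C. BrightGlo luminescence normalized to DMSO; EC50 by four-parameter fit, else % inhibition at 10 μM.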

Row | SMILES | EC50 (IL-6 in THP-1 cells) [µM] | inhibition at 10 µM [1] [%] | EC50 [1] [µM] | inhibition at 10 µM (IL-6 in THP-1 cells) [%]
1 | CN(C)CCNc1cc(F)cc(-c2cncc3[nH]c(-c4n[nH]c5ccc(-c6cncc(OCCN7CCCC7)c6)nc45)nc23)c1 [Compound 742, N^1-(3-Fluoro-5-(2-(5-(5-(2-(pyrrolidin-1-yl)ethoxy)pyridin-3-yl)-1H-pyrazolo[4,3-b]pyridin-3-yl)-3H-imidazo[4,5-c]pyridin-7-yl)phenyl)-N^2,N^2-dimethylethane-1,2-diamine] | 8.86 | 17.1 | > 10 | 
2 | CN(C)CC(=O)Nc1cncc(-c2ccc3[nH]nc(-c4nc5c(-c6cccc(F)c6)cncc5[nH]4)c3n2)c1 [Compound 925, 2-(Dimethylamino)-N-(5-(3-(7-(3-fluorophenyl)-3H-imidazo[4,5-c]pyridin-2-yl)-1H-pyrazolo[4,3-b]pyridin-5-yl)pyridin-3-yl)acetamide] | > 10 | 23 | > 10 | 20.1
3 | COc1cccc(-c2cncc3[nH]c(-c4n[nH]c5ccc(-c6cccnc6)nc45)nc23)c1 [Compound 949, 3-(7-(3-Methoxylphenyl)-3H-imidazo[4,5-c]pyridin-2-yl)-5-(pyridin-3-yl)-1H-pyrazolo[4,3-b]pyridine] | 0.682 | 18.2 | > 10 | 
4 | COc1cccc(-c2cncc3[nH]c(-c4n[nH]c5ccc(-c6cncc(NC(=O)Cc7ccccc7)c6)nc45)nc23)c1 [Compound 955, N-(5-(3-(7-(3-methoxylphenyl)-3H-imidazo[4,5-c]pyridin-2-yl)-1H-pyrazolo[4,3-b]pyridin-5-yl)pyridin-3-yl)-2-phenylacetamide] | > 10 | 21.5 | > 10 | 27.5
5 | COc1cccc(-c2cncc3[nH]c(-c4n[nH]c5ccc(-c6cncc(NC(=O)CC(C)(C)C)c6)nc45)nc23)c1 [Compound 961, N-(5-(3-(7-(3-methoxylphenyl)-3H-imidazo[4,5-c]pyridin-2-yl)-1H-pyrazolo[4,3-b]pyridin-5-yl)pyridin-3-yl)-3,3-dimethylbutanamide] | > 10 | 0 | > 10 | 22.5
6 | COc1cccc(-c2cncc3[nH]c(-c4n[nH]c5ccc(-c6cncc(NC(=O)C7CCCCC7)c6)nc45)nc23)c1 [Compound 967, N-(5-(3-(7-(3-Methoxylphenyl)-3H-imidazo[4,5-c]pyridin-2-yl)-1H-pyrazolo[4,3-b]pyridin-5-yl)pyridin-3-yl)cyclohexanecarboxamide] | > 10 | 0 | > 10 | 33.9
7 | COc1cccc(-c2cncc3[nH]c(-c4n[nH]c5ccc(-c6cn[nH]c6)nc45)nc23)c1 [Compound 975, 3-(7-(3-Methoxylphenyl)-3H-imidazo[4,5-c]pyridin-2-yl)-5-(1H-pyrazol-4-yl)-1H-pyrazolo[4,3-b]pyridine] | > 10 | 2 | > 10 | 0
8 | COc1cccc(-c2cncc3[nH]c(-c4n[nH]c5ccc(-c6cncc(OC7CCNCC7)c6)nc45)nc23)c1 [Compound 980, 3-(7-(3-Methoxylphenyl)-3H-imidazo[4,5-c]pyridin-2-yl)-5-(5-(piperidin-4-yloxy)pyridin-3-yl)-1H-pyrazolo[4,3-b]pyridine] | > 10 | 25.8 | > 10 | 34.1
9 | COc1cccc(-c2cncc3[nH]c(-c4n[nH]c5ccc(-c6cncc(O)c6)nc45)nc23)c1 [Compound 985, 5-(3-(7-(3-Methoxylphenyl)-3H-imidazo[4,5-c]pyridin-2-yl)-1H-pyrazolo[4,3-b]pyridin-5-yl)pyridin-3-ol] | 1.34 | 7.8 | > 10 | 
